Assay: mn = molality of the nth substance listed, in mol/kg
Conditions: 100 kPa, Liquid; for speed of sound: Frequency=3 MHz, Sing-around technique in a fixed-path interferometer; for mass density: Vibrating tube method

NC(N)=O [urea] + O
Conditions | mass density, 288.15 K [kg/m3] | mass density, 293.15 K [kg/m3] | mass density, 298.15 K [kg/m3] | mass density, 303.15 K [kg/m3] | mass density, 308.15 K [kg/m3] | speed of sound, 288.15 K [m/s] | speed of sound, 293.15 K [m/s] | speed of sound, 298.15 K [m/s] | speed of sound, 303.15 K [m/s] | speed of sound, 308.15 K [m/s]
m1 = 0.0504 | 999.922 | 999.019 | 997.847 | 996.442 | 994.816 | 1468.2 | 1483.9 | 1498 | 1510.3 | 1520.9
m1 = 0.0807 | 1000.43 | 999.511 | 998.329 | 996.911 | 995.281 | 1469.1 | 1484.8 | 1498.8 | 1511 | 1521.6
m1 = 0.1107 | 1000.92 | 999.994 | 998.802 | 997.378 | 995.738 | 1470 | 1485.6 | 1499.6 | 1511.8 | 1522.2
m1 = 0.151 | 1001.58 | 1000.64 | 999.436 | 997.998 | 996.351 | 1471.3 | 1486.8 | 1500.6 | 1512.7 | 1523.1
m1 = 0.2005 | 1002.39 | 1001.43 | 1000.21 | 998.757 | 997.097 | 1472.8 | 1488.1 | 1501.9 | 1513.9 | 1524.2
m1 = 0.2512 | 1003.21 | 1002.23 | 1000.99 | 999.529 | 997.855 | 1474.1 | 1489.5 | 1503.1 | 1515 | 1525.3

CCCCNC(N)=O [N-butylurea] + O
Conditions | mass density, 288.15 K [kg/m3] | mass density, 293.15 K [kg/m3] | mass density, 298.15 K [kg/m3] | mass density, 303.15 K [kg/m3] | mass density, 308.15 K [kg/m3] | speed of sound, 288.15 K [m/s] | speed of sound, 293.15 K [m/s] | speed of sound, 298.15 K [m/s] | speed of sound, 303.15 K [m/s] | speed of sound, 308.15 K [m/s]
m1 = 0.0486 | 999.444 | 998.527 | 997.349 | 995.933 | 994.297 | 1471.6 | 1487.2 | 1501.1 | 1513.1 | 1523.5
m1 = 0.0781 | 999.638 | 998.707 | 997.514 | 996.086 | 994.438 | 1474.5 | 1490 | 1503.6 | 1515.4 | 1525.6
m1 = 0.1078 | 999.835 | 998.889 | 997.683 | 996.243 | 994.583 | 1477.5 | 1492.7 | 1506.1 | 1517.7 | 1527.6
m1 = 0.1473 | 1000.1 | 999.134 | 997.909 | 996.448 | 994.774 | 1481.3 | 1496.2 | 1509.3 | 1520.6 | 1530.3
m1 = 0.1974 | 1000.44 | 999.45 | 998.201 | 996.718 | 995.022 | 1486.1 | 1500.6 | 1513.3 | 1524.3 | 1533.7
m1 = 0.2475 | 1000.78 | 999.763 | 998.489 | 996.985 | 995.266 | 1490.8 | 1504.9 | 1517.3 | 1527.9 | 1536.9
m1 = 0.2986 | 1001.14 | 1000.09 | 998.789 | 997.259 | 995.516 | 1495.5 | 1509.2 | 1521.2 | 1531.5 | 1540.2

CN(C)C(N)=O [N,N-dimethylurea] + O
Conditions | mass density, 288.15 K [kg/m3] | mass density, 293.15 K [kg/m3] | mass density, 298.15 K [kg/m3] | mass density, 303.15 K [kg/m3] | mass density, 308.15 K [kg/m3] | speed of sound, 288.15 K [m/s] | speed of sound, 293.15 K [m/s] | speed of sound, 298.15 K [m/s] | speed of sound, 303.15 K [m/s] | speed of sound, 308.15 K [m/s]
m1 = 0.0526 | 999.644 | 998.733 | 997.562 | 996.154 | 994.527 | 1469.9 | 1485.7 | 1499.7 | 1511.8 | 1522.3
m1 = 0.0842 | 999.97 | 999.051 | 997.869 | 996.454 | 994.818 | 1471.8 | 1487.5 | 1501.3 | 1513.4 | 1523.7
m1 = 0.1149 | 1000.29 | 999.36 | 998.171 | 996.746 | 995.103 | 1473.7 | 1489.2 | 1502.9 | 1514.8 | 1525
m1 = 0.1572 | 1000.73 | 999.785 | 998.583 | 997.148 | 995.495 | 1476.3 | 1491.6 | 1505.1 | 1516.8 | 1526.8
m1 = 0.2104 | 1001.28 | 1000.32 | 999.103 | 997.653 | 995.988 | 1479.6 | 1494.6 | 1507.8 | 1519.3 | 1529.1
m1 = 0.2629 | 1001.83 | 1000.85 | 999.617 | 998.153 | 996.474 | 1482.6 | 1497.4 | 1510.4 | 1521.7 | 1531.3
m1 = 0.318 | 1002.4 | 1001.4 | 1000.15 | 998.673 | 996.98 | 1485.9 | 1500.4 | 1513.2 | 1524.2 | 1533.6
